In patent US20090081669A1 (ENCODE BIO, INC., priority 2006, published 2009):

How the values were obtained:
yeast strain MaV203 = test: Rescue of GAL4 (TAG) expression by DANSYL-O-RS/O-tRNA pair, growth in the absence of uracil; type: cell-based; settings: MaV203 with DANSYL-O-RS, suppressor O-tRNA and GAL4 TAG
From the text: The yeast strain MaV203 was transfected with plasmids coding for the DANSYL-O-RS (SEQ ID NO:12, derived from E. coli), suppressor O-tRNA (SEQ ID NO:5 derived from E. coli) and a marker gene, GAL4, containing nonsense TAG codons. Yeast harboring a functional DANSYL-RSOR and suppressor tRNA OR will “rescue” expression of GAL4. The MAV203 yeast strain contains the URA3 gene (required for uracil biosynthesis) under control of the GAL4 promoter. When grown in the absence of uracil, MAV203 yeast will not grow unless “rescue” of GAL4 expression occurs.

CAT-TAG in CHO cells = test: CAT-TAG expression in transfected CHO cells (FAST CAT assay); type: cell-based; settings: cells with O-RS/O-tRNA and CAT-TAG, grown in the presence of dansyl-alanine
From the text: We first redesigned the suppressor O-tRNA gene to make it suitable for expression in mammalian cells by altering the 5′ UTR, mutating the promoter regions and generating a tandem repeat, thereby forming SEQ ID NO:6, and subcloned the O-RS gene (SEQ ID NO:12) into a mammalian expression vector. We transformed CHO cells with the plasmids encoding the modified O-RS/O-tRNA genes and a marker gene, Chloramphenicol Acetyltransferase (“CAT”), containing a nonsense TAG codon (“CAT-TAG”). Expression of CAT-TAG was assessed using a fluorescent-based assay (FAST CAT, Invitrogen, Inc.) that measures the conversion of chloramphenicol-BODIPY (FL-CM) to 3-acetyl-chloramphenicol-BODIPY (FL-AcCM) by thin layer chromatography. […] As a positive control, cells were transfected with wildtype CAT cDNA.

## CN(C)c1cccc2c(S(=O)(=O)NC[C@H](N)C(=O)O)cccc12
Yeast strain MaV203
  growth of transformed yeast in the absence of uracil: Growth was only observed when the transformed yeast were grown in the presence of dansyl-alanine
CAT-TAG in CHO cells
  CAT activity of transfected CHO cells: expressed significant CAT activity
